Here are results for seven compounds from patent US20010018060A1, “Use of particular fatty substances which make it possible to modify the physicochemical properties of the skin and/or the mucous membranes as agents preventing or reducing the adhesion of microorganisms to the latter” (priority 2000, published 2001).

Data set [1] deals with Staphylococcus aureus adhering to reconstructed epidermis. In kind it is cell-based. Conditions: for Reduction of log/control: reduction of decimal logarithm of mean number of viable Staphylococcus aureus adhering to reconstructed epidermis (EPISKIN) vs water, 25 mg fatty substance, 2 hours at 37° C., then 24 hours with bacteria. The procedure: Moreover, these fatty substances are such that the decimal logarithm of the mean number of viable bacteria adhering to reconstructed epidermis, after a test consisting in bringing the said epidermis into contact with the test compound for 2 hours at 37° C., is at least 0.3, preferably 0.5 and more preferably 1, less than that obtained by a test carried out with water under the same conditions.
The reconstructed epidermis used in the test indicated above is reconstructed human epidermis, equivalent to human skin, sold by EPISKIN.
The antiadhesion test corresponds to the protocol below:
Before bacterial adhesion, the reconstructed epidermis is brought into contact for 2 hours with 25 mg of the fatty substance to be tested at 37° C. 1 ml of bacterial suspension of Staphylococcus aureus at a concentration of 10^7 microorganisms/ml in Tryptone salt is then added thereto. After incubating for 24 hours at 37° C., the bacterial suspension is emptied and five rinsings are carried out with 1 ml of sterile distilled water. The epidermis, detached from its support, is then ground with the aid of a food processor in 18 ml of Tryptone salt. A decimal dilution is carried out on this suspension in Tryptone salt, and 1 ml of the dilution is then inoculated into 15 ml of Trypticase Soy agar and the medium is incubated for 24 hours at 37° C. The adherent and viable cells are then counted.
This antiadhesion test makes it possible to evaluate the efficacy of molecules alone or of finished products.
The figures presented opposite the fatty substance correspond to the reduction of the decimal logarithm of the mean number of viable Staphylococcus aureus adhering to reconstructed epidermis after treatment with the fatty substance under the conditions defined by the preceding test compared with the decimal logarithm of the mean number of viable Staphylococcus aureus adhering to reconstructed epidermis after treatment with water under the same conditions.
The figures presented opposite the fatty substance correspond to the value of the decimal logarithm of the mean number of viable Staphylococcus aureus adhering to reconstructed epidermis after treatment with the fatty substance under the conditions defined by the preceding test compared with the decimal logarithm of the mean number of viable Staphylococcus aureus adhering to reconstructed epidermis after treatment with water under the same conditions.

A short description of data set [2]: interfacial tension of the fatty substance. The format is physicochemical.

As to `CCCCCCCCOC(=O)CCCCC(=O)OCCCCCCCC` [Dioctyl adipate], the Reduction of log/control in data set [1] is listed as 0.9.
Same read-out and setting: to `CCCCCCCCCCCCCCCC(=O)OC(C)C` [Isopropyl palmitate] belongs 1.07.
Same read-out and setting: then `CCCCCCCCCCCCCCCCCCCCCC(=O)OCC(O)COCC(CC)CCCC` (centres unmarked) [Octoxyglyceryl behenate], with 2.59; and `CCCCCCCCCCCCCCCC(=O)OCC(O)COCC(CC)CCCC` (centres unmarked) [Octoxyglyceryl palmitate], with 1.85.
As for `CC(C)CCCC(C)CCCC(C)CCCCC(C)CCCC(C)CCCC(C)C` (centres unmarked) [Squalane, reference compound], the Log measured in data set [1] (decimal logarithm of viable adhering Staphylococcus aureus compared with water control, the printed number is an increase /control, same test conditions) is on record as 0.27/control. The Interfacial tension in data set [2] was 46 mN/m.
The compound Di(C12-13 alkyl) malate showed a Reduction of log/control in data set [1] of 3.68.
Still for that read-out and setting: to Tartrate of branched C12-C13 dialcohols belongs 2.31.
